Tests used:
Assay type in all cases: cell-based
[1] = test system: primary human fibroblasts derived from IPF patients (LL29 cells); test: Inhibition of the fibrotic process: αSMA staining in TGF-β1 treated fibroblasts; settings: Fibroblast; for EC50: 96 h, LL29 cells, TGF-β1 20 ng/mL, 4 days, % αSMA positive cells; for inhibition at 10 µM: given where EC50 >10 μM, LL29, αSMA, read-out: percent inhibition at 10 μM
Excerpt: Representative compounds were screened using primary human fibroblasts (derived from IPF patients) treated with TGF-β1 to determine their ability to inhibit the fibrotic process.
Human Fibroblast Cell Culture: Primary human fibroblasts derived from IPF patients (LL29 cells) [^1Xiaoqiu Liu, et. al., “Fibrotic Lung Fibroblasts Show Blunted Inhibition by cAMP Due to Deficient cAMP Response Element-Binding Protein Phosphorylation”, Journal of Pharmacology and Experimental Therapeutics (2005), 315(2), 678-687; ^2Watts, K. L., et. al., “RhoA signaling modulates cyclin D1 expression in human lung fibroblasts; implications for idiopathic pulmonary fibrosis”, Respiratory Research (2006), 7(1), 88] were obtained from American Type Culture Collection (ATCC) and expanded in F12 medium supplemented with 15% Fetal Bovine Serum and Penicillin/Streptomycin.
Compound Screening: Each compound was dissolved in DMSO as a 10 mM stock and used to prepare compound source plates. Serial dilution (1:2, 11-point dose-response curves from 10 μM to […]) and compound transfer was performed using the ECHO 550 (Labcyte, Sunnyvale, Calif.) into 384-well clear bottom assay plates (Greiner Bio-One) with appropriate DMSO backfill for a final DMSO concentration of 0.1%. LL29 cells are plated at 1,500 cells/well in 80 μL/well F12 medium supplemented with 1% Fetal Bovine Serum. One hour after addition of the cells, TGF-β1 (Peprotech; 20 ng/mL) was added to the plates to induce fibrosis (ref. 1 and 2 above). Wells treated with TGF-β1 and containing DMSO were used as controls. Cells were incubated at 37° C. and 5% CO2 for 4 days. Following incubation for 4 days, SYTOX green nucleic acid stain (Life Technologies [Thermo Fisher Scientific]) was added to the wells at a final concentration of 1 μM and incubated at room temperature for 30 min. Cells were then fixed using 4% formaldehyde (Electron Microscopy Sciences), washed 3 times with PBS followed by blocking and permeabilization using 3% Bovine Serum Albumin (BSA; Sigma) and 0.3% Triton X-100 (Sigma) in PBS. Cells were then stained with antibody specific to α-smooth muscle actin (αSMA; Abcam) (ref. 1 and 2 above) in 3% Bovine Serum Albumin (BSA; Sigma) and 0.3% Triton X-100 (Sigma) in PBS, and incubated overnight at 4° C. Cells were then washed 3 times with PBS, followed by incubation with Alexa Flor-647 conjugated secondary antibody (Life Technologies [Thermo Fisher Scientific]) and DAPI at room temperature for 1 hour. Cells were then washed 3 times with PBS and plates were sealed for imaging. αSMA staining was imaged by excitation at 630 nm and emission at 665 nm and quantified using the Compartmental Analysis program on the CellInsight CX5 (Thermo Scientific). Dead or apoptotic cells were excluded from analysis based on positive SYTOX green staining. % of total cells positive for αSMA were counted in each well and normalized to the average of 11 wells treated with TGF-β1 on the same plate using Dotmatics' Studies Software. The normalized averages (fold change over untreated) of 3 replicate wells for each compound concentration were used to create dose-responses curves and EC50 values were calculated using non-linear regression curve fit in the Dotmatics' Studies Software. For EC50 of >10 μM, the percent inhibition at 10 μM is provided.

[2] = test system: Wnt activity (Sp5-Luc reporter, SW480 colon carcinoma cells); test: Wnt activity screening assay: Sp5-Luc reporter gene assay in SW480 cells; settings: Homo sapiens; for EC50: SW480 cells, overnight incubation; for inhibition at 10 µM: given where EC50 >10 μM, SW480, read-out: percent inhibition at 10 μM
Excerpt: The screening assay for Wnt activity is described as follows. Reporter cell lines can be generated by stably transducing cancer cell lines (e.g., colon cancer) or primary cells (e.g., IEC-6 intestinal cells) with a lentiviral construct that includes a Wnt-responsive promoter driving expression of the firefly luciferase gene.
SW480 colon carcinoma cells were transduced with a lentiviral vector expressing luciferase with a human Sp5 promoter consisting of a sequence of eight TCF/LEF binding sites. SW480 cells stably expressing the Sp5-Luc reporter gene and a hygromycin resistance gene were selected by treatment with 150 μg/mL of hygromycin for 7 days. These stably transduced SW480 cells were expanded in cell culture and used for all further screening activities. Each compound was dissolved in DMSO as a 10 mM stock and used to prepare compound source plates. Serial dilution (1:3, 10-point dose-response curves starting from 10 μM) and compound transfer was performed using the ECHO 550 (Labcyte, Sunnyvale, Calif.) into 384-well white solid bottom assay plates (Greiner Bio-One) with appropriate DMSO backfill for a final DMSO concentration of 0.1%. For Sp5-Luc reporter gene assays, the cells were plated at 4,000 cells/well in 384-well plates with medium containing 1% fetal bovine serum and incubated overnight at 37° C. and 5% CO2. Following incubation, 20 μl of BrightGlo luminescence reagent (Promega) was added to each well of the 384-well assay plates. The plates were placed on an orbital shaker for 2 min and then luminescence was quantified using the Envision (Perkin Elmer) plate reader. Readings were normalized to DMSO only treated cells, and normalized activities were utilized for EC50 calculations using the dose-response log (inhibitor) vs. response -variable slope (four parameters) nonlinear regression feature available in GraphPad Prism 5.0 (or Dotmatics). For EC50 of >10 μM, the percent inhibition at 10 μM is provided.

[3] = test system: SW480 colon cancer cells; test: Cell viability assay (CellTiter-Blue); settings: Homo sapiens; for EC50: 96 h, SW480 cell viability, four days, CellTiter-Blue; for inhibition at 10 µM: given where EC50 >10 μM, SW480 viability, read-out: percent inhibition at 10 μM
Description: Representative compounds were screened using the following assay procedure to assess the effect on cell viability as described below.
Each compound was dissolved in DMSO as a 10 mM stock and used to prepare compound source plates. Serial dilution (1:3, 8-point dose-response curves from 10 μM to 0.0045 μM) and compound transfer was performed using the ECHO 550 (Labcyte, Sunnyvale, Calif.) into 96-well clear bottom, black-walled plates (Corning-Costar).
Approximately 2×10^3 SW480 colon cancer cells were seeded into each well and allowed to incubate in the presence or absence of compound for four days at 37° C./5% CO2. Eight replicates of DMSO-treated cells served as controls and cells treated with compound were performed in duplicate.
After incubation, 20 μL of CellTiter-Blue (Promega) was added to each well allowed to incubate for approximately 3 hours. This reagent was a buffered solution which contains resazurin, metabolically active cells were able to reduce rezarurin (blue) into resorufin (pink) which was highly fluorescent. This measured fluorescence was used as a readout for cell viability.
After incubation, the plates were read at Ex 560 nm Em 590 nm (Cytation 3, BioTek). Dose-response curves were generated and EC50 concentration values were calculated using non-linear regression curve fit in the GraphPad Prism (San Diego, Calif.) or Dotmatics' Studies Software (Bishops Stortford, UK). For EC50 of >10 μM, the percent inhibition at 10 μM is provided.

Compound | EC50 [1] [µM] | EC50 [2] [µM] | EC50 [3] [µM] | inhibition at 10 µM [1] [%] | inhibition at 10 µM [2] [%] | inhibition at 10 µM [3] [%]
CN1CCN(c2ccnc3[nH]c(-c4n[nH]c5ccc(-c6cncc(NC(=O)C(C)(C)C)c6)nc45)cc23)CC1 [Compound 232, N-(5-(3-(4-(4-Methylpiperazin-1-yl)-1H-pyrrolo[2,3-b]pyridin-2-yl)-1H-pyrazolo[4,3-b]pyridin-5-yl)pyridin-3-yl)pivalamide] | 0.795 | 3.83 | 1.44 | – | – | –
O=C(Nc1cncc(-c2ccc3[nH]nc(-c4cc5cccnc5[nH]4)c3n2)c1)C1CCCCC1 [Compound 275, N-(5-(3-(1H-Pyrrolo[2,3-b]pyridin-2-yl)-1H-pyrazolo[4,3-b]pyridin-5-yl)pyridin-3-yl)cyclohexanecarboxamide] | > 10 | > 10 | > 10 | 0 | 14.9 | 10.5
Fc1cccc(-c2ccnc3[nH]c(-c4n[nH]c5ccc(-c6cncc(CN7CCCCC7)c6)nc45)cc23)c1 [Compound 15, 3-(4-(3-Fluorophenyl)-1H-pyrrolo[2,3-b]pyridin-2-yl)-5-(5-(piperidin-1-ylmethyl)pyridin-3-yl)-1H-pyrazolo[4,3-b]pyridine] | > 10 | > 10 | > 10 | 10.3 | 8 | 29.9
CC(C)(C)C(=O)Nc1cncc(-c2ccc3[nH]nc(-c4cc5c(-c6cccc(F)c6)ccnc5[nH]4)c3n2)c1 [Compound 8, N-(5-(3-(4-(3-Fluorophenyl)-1H-pyrrolo[2,3-b]pyridin-2-yl)-1H-pyrazolo [4,3-b]pyridin-5-yl)pyridin-3-yl)pivalamide] | 1.1 | > 10 | > 10 | – | 14.3 | 18.4
Fc1ccccc1-c1ccnc2[nH]c(-c3n[nH]c4ccc(-c5ccccn5)nc34)cc12 [Compound 84, 3-(4-(2-Fluorophenyl)-1H-pyrrolo[2,3-b]pyridin-2-yl)-5-(pyridin-2-yl)-1H-pyrazolo[4,3-b]pyridine] | > 10 | > 10 | > 10 | 0 | 3 | 16.5
CN(C)CCNc1cc(F)cc(-c2ccnc3[nH]c(-c4n[nH]c5ccc(-c6cncc(CNCC7CCCC7)c6)nc45)cc23)c1 [Compound 473, N^1-(3-(2-(5-(5-(((Cyclopentylmethyl)amino)methyl)pyridin-3-yl)-1H-pyrazolo[4,3-b]pyridin-3-yl)-1H-pyrrolo[2,3-b]pyridin-4-yl)-5-fluorophenyl)-N^2,N^2-dimethylethane-1,2-diamine] | 2 | 4.67 | 2.26 | – | – | –
Cc1ccncc1-c1ccc2[nH]nc(-c3cc4c(-c5ccncc5)ccnc4[nH]3)c2n1 [Compound 117, 5-(4-Methylpyridin-3-yl)-3-(4-(pyridin-4-yl)-1H-pyrrolo[2,3-b]pyridin-2-yl)-1H-pyrazolo[4,3-b]pyridine] | 0.6 | > 10 | > 10 | – | 11.8 | 3.4
c1csc(-c2ccnc3[nH]c(-c4n[nH]c5ccc(-c6cncc(OC7CCNCC7)c6)nc45)cc23)c1 [Compound 704, 5-(5-(Piperidin-4-yloxy)pyridin-3-yl)-3-(4-(thiophen-2-yl)-1H-pyrrolo[2,3-b]pyridin-2-yl)-1H-pyrazolo[4,3-b]pyridine] | 1.82 | 3.71 | > 10 | – | – | 49.5
CN(C)CCNc1cc(F)cc(-c2ccnc3[nH]c(-c4n[nH]c5ccc(-c6ccncc6)nc45)cc23)c1 [Compound 466, N^1-(3-Fluoro-5-(2-(5-(pyridin-4-yl)-1H-pyrazolo[4,3-b]pyridin-3-yl)-1H-pyrrolo[2,3-b]pyridin-4-yl)phenyl)-N^2,N^2-dimethylethane-1,2-diamine] | 0.391 | > 10 | > 10 | – | 8.6 | 16.8
Cn1cc(-c2ccc3[nH]nc(-c4cc5cccnc5[nH]4)c3n2)cn1 [Compound 652, 5-(1-Methyl-1H-pyrazol-4-yl)-3-(1H-pyrrolo[2,3-b]pyridin-2-yl)-1H-pyrazolo[4,3-b]pyridine] | 1.21 | 2.26 | > 10 | – | – | 29.2
CN(C)Cc1cncc(-c2ccc3[nH]nc(-c4cc5c(-c6ccccc6F)ccnc5[nH]4)c3n2)c1 [Compound 69, 1-(5-(3-(4-(2-Fluorophenyl)-1H-pyrrolo[2,3-b]pyridin-2-yl)-1H-pyrazolo [4,3-b]pyridin-5-yl)pyridin-3-yl)-N,N-dimethylmethanamine] | 2 | > 10 | > 10 | – | 8.3 | 33.5
Fc1ccc(-c2ccnc3[nH]c(-c4n[nH]c5ccc(-c6cncc(CN7CCC(F)(F)C7)c6)nc45)cc23)cc1 [Compound 54, 5-(5-((3,3-Difluoropyrrolidin-1-yl)methyl)pyridin-3-yl)-3-(4-(4-fluorophenyl)-1H-pyrrolo[2,3-b]pyridin-2-yl)-1H-pyrazolo[4,3-b]pyridine] | 0.374 | > 10 | > 10 | – | 10.2 | 27.8

Source: patent US10206909B2, “3-(1H-pyrrolo[2,3-B]pyridin-2-yl)-1H-pyrazolo[4,3-B]pyridines and therapeutic uses thereof” (Samumed, LLC, priority 2015, dated 2019)
